Experimental data taken from PMC10840477 (Acta Pharmaceutica Sinica. B, 2023).
Each block holds one compound with its values, some of them ahead of it.

What was measured:
ICR mice [1] = assay: In vivo acute pulmonary thrombosis; set-up: species or system mouse; details: three days, positive control
P2Y12 = P2Y12 (Homo sapiens, UniProt Q9H244); assay: P2Y12 β-Arrestin recruitment assay; type: cell-based; details: at similar concentrations as TP1; antagonist mode, n = 2
ICR mice [2] = assay: Forced swimming test; type: in vivo, mouse; details: p.o. 20 mg/kg, positive control, final 4 min of 6 min test
ICR mice [3] = assay: Tail suspension test; type: in vivo, mouse; details: p.o. 20 mg/kg, positive control, final 4 min of 6 min test

Chain of P2Y12 (Q9H244 whole entry): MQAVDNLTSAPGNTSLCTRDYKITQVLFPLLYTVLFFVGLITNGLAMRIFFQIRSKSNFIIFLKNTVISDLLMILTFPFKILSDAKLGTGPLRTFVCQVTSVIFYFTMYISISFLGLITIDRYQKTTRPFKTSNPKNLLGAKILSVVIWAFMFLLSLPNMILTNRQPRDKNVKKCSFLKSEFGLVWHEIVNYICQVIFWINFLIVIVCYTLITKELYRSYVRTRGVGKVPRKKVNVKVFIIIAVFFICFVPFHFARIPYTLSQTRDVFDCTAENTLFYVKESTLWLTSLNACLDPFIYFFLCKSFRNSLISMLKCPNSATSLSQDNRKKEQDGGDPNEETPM

Compound: CC(=O)Oc1ccccc1C(=O)O [aspirin]
- Thrombus formation in the lung, effect relative to ginsentide TP1 (ICR mice [1]; oral aspirin 100 mg/kg): comparable

Compound: COC(=O)[C@H](c1ccccc1Cl)N1CCc2sccc2C1 [clopidogrel]
- Thrombus formation in the lung, effect relative to ginsentide TP1 (ICR mice [1]; oral clopidogrel 50 mg/kg): comparable

- Inhibitory effects against P2Y12 activation (P2Y12): did not display inhibitory effects
Compound: CC(C)=CCC[C@](C)(O[C@@H]1O[C@H](CO)[C@@H](O)[C@H](O)[C@H]1O)[C@H]1CC[C@]2(C)[C@@H]1[C@H](O)C[C@@H]1[C@@]3(C)CC[C@H](O)C(C)(C)[C@@H]3[C@@H](O[C@@H]3O[C@H](CO)[C@@H](O)[C@H](O)[C@H]3O)C[C@]12C [ginsenoside Rg1]

- Inhibitory effects against P2Y12 activation (P2Y12): did not display inhibitory effects
Compound: CC(C)=CCC[C@](C)(O[C@@H]1O[C@H](CO[C@@H]2O[C@H](CO)[C@@H](O)[C@H](O)[C@H]2O)[C@@H](O)[C@H](O)[C@H]1O)[C@H]1CC[C@]2(C)[C@@H]1[C@H](O)C[C@@H]1[C@@]3(C)CC[C@H](O[C@@H]4O[C@H](CO)[C@@H](O)[C@H](O)[C@H]4O[C@@H]4O[C@H](CO)[C@@H](O)[C@H](O)[C@H]4O)C(C)(C)[C@@H]3CC[C@]12C [ginsenoside Rb1]

Compound: CNCCC(Oc1ccc(C(F)(F)F)cc1)c1ccccc1 (stereo not drawn) [fluoxetine]
- Decrease of immobility time, forced swimming test (ICR mice [2]): 42.52 ± 9.96 s
- Decrease of immobility time, tail suspension test (ICR mice [3]): 30.01 ± 7.22 s
